The target of the test is T1, human T1R1, a rat-human T1R3 chimera, and the promiscuous G-protein G16gust25 (UniProt Q7RTX1+Q923K1, A568E/A645S/A698V/A702T/A793V/A807V/C582S/C678S/E725V/E827G/F612A/F622V/F805L/I617V/I740A/I779T/I803L/K818R/L735F/L823M/L825Q/M644L/M706V/M729T/N675D/Q717H/Q757R/Q795R/Q831P/R632Q/R634S/S576L/S610P/S635P/S637R/S679G/T588V/T694M/T813A/V584A/V718M/V723A/V738A/V744T/V821L/W599R/W676R/W824R/Y598H/Y680C/Y794L).
T1 sequence (Q7RTX1 21-841): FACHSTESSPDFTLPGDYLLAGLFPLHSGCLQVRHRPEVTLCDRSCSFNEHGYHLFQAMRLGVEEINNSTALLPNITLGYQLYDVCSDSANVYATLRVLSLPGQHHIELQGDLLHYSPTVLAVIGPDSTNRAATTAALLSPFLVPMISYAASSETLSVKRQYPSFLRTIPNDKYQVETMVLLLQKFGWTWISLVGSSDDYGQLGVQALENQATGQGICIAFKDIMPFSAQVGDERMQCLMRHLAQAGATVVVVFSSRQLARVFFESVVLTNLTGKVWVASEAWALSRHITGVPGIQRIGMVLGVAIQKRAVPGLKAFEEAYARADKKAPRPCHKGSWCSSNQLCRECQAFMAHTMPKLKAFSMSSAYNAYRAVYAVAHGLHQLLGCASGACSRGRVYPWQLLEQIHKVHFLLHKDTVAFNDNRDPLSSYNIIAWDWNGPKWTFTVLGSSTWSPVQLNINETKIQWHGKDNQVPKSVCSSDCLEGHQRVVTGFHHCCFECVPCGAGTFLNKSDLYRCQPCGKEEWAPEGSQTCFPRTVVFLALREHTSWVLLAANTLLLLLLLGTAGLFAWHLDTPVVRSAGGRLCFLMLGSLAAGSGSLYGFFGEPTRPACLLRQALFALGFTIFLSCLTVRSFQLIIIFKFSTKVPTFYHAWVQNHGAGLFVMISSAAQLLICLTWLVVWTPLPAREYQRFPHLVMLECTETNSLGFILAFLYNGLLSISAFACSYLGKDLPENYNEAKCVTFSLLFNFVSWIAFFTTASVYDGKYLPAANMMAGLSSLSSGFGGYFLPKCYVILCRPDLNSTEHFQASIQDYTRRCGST
T1 sequence (Q923K1 with tags, fused parts or gaps A568E/S576L/C582S/V584A/T588V/Y598H/W599R/S610P/F612A/I617V/F622V/R632Q/R634S/S635P/S637R/M644L/A645S/N675D/W676R/C678S/S679G/Y680C/T694M/A698V/A702T/M706V/Q717H/V718M/V723A/E725V/M729T/L735F/V738A/I740A/V744T/Q757R/I779T/A793V/Y794L/Q795R/I803L/F805L/A807V/T813A/K818R/V821L/L823M/W824R/L825Q/E827G/Q831P limits assumed): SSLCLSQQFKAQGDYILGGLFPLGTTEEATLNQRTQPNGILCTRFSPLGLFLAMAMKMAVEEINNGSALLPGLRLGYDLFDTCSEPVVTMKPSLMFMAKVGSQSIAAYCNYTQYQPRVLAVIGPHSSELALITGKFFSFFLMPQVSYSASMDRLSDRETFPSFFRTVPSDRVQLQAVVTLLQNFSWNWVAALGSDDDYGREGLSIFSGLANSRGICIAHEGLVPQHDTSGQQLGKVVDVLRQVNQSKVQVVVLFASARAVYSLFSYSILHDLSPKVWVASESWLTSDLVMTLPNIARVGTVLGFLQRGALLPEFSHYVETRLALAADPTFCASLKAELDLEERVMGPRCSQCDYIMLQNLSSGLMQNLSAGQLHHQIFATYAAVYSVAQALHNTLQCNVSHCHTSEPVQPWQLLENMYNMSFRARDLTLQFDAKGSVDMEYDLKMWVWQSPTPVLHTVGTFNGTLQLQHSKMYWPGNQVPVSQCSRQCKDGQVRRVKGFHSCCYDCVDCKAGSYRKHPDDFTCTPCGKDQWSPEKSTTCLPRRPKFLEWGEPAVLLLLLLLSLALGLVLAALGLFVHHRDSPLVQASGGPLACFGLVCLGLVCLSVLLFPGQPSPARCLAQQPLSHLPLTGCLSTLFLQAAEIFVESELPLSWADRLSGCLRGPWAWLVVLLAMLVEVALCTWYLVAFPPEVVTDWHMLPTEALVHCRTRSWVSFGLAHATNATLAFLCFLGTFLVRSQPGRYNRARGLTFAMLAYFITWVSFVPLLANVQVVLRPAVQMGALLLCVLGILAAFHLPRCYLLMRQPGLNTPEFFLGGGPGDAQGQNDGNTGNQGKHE
As to conditions: MSG dose response, U2OS cell line, FIG. 4A.

Consider one compound from patent US20250155427A1, “CELLS […] TASTE RECEPTORS AND USES THEREOF” (Firmenich Incorporated, priority 2022, published 2025).

Excerpt: The x-axis plots the log of MSG concentration, while the y-axis plots fold change in fluorescence of a Ca^2+-sensitive fluorescent dye in response to intracellular Ca^2+ concentration.
The x-axis plots the log of savory compound concentration, while the y-axis plots fold change in fluorescence of a Ca^2+-sensitive fluorescent dye in response to intracellular Ca^2+ concentration. FIG. 4A also indicates the EC50 for each compound.

Consider `N[C@@H](CCC(=O)O)C(=O)[O-].[Na+]` [MSG, monosodium glutamate], for which the “fold change in fluorescence of a Ca^2+-sensitive fluorescent dye in response to intracellular Ca^2+ concentration” value is given as “fluorescence detectably increases as MSG concentration increases”.
